According to ChEMBL document CHEMBL4118276, “The mimics of Nε-acyl-lysine derived from cysteine as sirtuin inhibitors” (Bioorg Med Chem Lett, 2018):
Activity calls are given as the source filed them. No cut-off for these calls is given here. Residues, ends and D or L forms follow the SMILES beside them. *: point of attachment. X2 = CCCCCCCCCCCCCNC(=O)CCC*; X1 = CCCCCCCCCCNC(=O)CCC*; X3 = CCCCCCCCNC(=O)CCC*

Assays:
[1] = target: T1, NAD-dependent protein deacylase sirtuin-5, mitochondrial (Homo sapiens, UniProt Q9NXA8); assay: Inhibition of human SIRT5 expressed in Escherichia coli BL21 using H3K9AcWW as substrate preincubated for 15 mins followed by substrate addition measured after 1 hr by HPLC analysis
Target sequence in this assay (Q9NXA8 whole entry): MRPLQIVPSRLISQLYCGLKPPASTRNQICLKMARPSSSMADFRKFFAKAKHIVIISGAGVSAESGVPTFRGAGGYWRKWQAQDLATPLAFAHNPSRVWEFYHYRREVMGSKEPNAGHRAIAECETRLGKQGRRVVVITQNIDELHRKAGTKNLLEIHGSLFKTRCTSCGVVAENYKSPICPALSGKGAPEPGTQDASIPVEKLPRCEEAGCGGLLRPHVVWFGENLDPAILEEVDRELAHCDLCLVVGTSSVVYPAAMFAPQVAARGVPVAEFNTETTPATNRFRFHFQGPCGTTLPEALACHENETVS

[2] = target: T2, NAD-dependent protein deacetylase sirtuin-3, mitochondrial (Homo sapiens, UniProt Q9NTG7); assay: Inhibition of human SIRT3 expressed in Escherichia coli BL21 using H3K9AcWW as substrate preincubated for 15 mins followed by substrate addition measured after 1 hr by HPLC analysis
T2 sequence (Q9NTG7 whole entry): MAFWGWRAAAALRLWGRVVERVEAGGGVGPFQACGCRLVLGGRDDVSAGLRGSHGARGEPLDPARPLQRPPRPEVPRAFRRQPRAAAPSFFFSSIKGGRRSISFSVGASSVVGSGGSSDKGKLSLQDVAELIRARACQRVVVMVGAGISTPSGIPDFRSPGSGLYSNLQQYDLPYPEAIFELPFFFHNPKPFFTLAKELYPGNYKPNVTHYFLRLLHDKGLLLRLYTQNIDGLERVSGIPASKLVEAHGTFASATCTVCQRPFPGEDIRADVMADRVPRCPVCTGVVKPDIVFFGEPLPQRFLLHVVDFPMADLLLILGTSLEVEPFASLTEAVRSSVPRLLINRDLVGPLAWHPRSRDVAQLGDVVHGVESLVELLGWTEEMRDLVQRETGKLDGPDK

[3] = target: T3, NAD-dependent protein deacylase sirtuin-6 (Homo sapiens, UniProt Q8N6T7); assay: Inhibition of human SIRT6 (1 to 294 residues) expressed in Escherichia coli Rosetta (DE3) using H3K9AcWW as substrate preincubated for 15 mins followed by substrate addition measured after 1 hr by HPLC analysis
T3 sequence (Q8N6T7 whole entry, the tested form may be a part): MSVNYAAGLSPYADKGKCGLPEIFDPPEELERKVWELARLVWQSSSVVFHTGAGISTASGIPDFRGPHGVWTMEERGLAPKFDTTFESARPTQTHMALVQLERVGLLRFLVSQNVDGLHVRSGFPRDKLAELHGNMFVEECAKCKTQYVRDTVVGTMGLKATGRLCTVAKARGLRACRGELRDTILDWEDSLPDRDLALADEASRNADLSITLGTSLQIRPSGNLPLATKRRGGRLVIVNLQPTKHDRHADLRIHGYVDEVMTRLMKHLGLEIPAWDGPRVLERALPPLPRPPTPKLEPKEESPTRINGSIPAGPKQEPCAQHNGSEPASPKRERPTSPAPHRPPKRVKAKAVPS

[4] = target: T4, NAD-dependent protein deacetylase sirtuin-2 (Homo sapiens, UniProt Q8IXJ6); assay: Inhibition of human N-terminal His6-SUMO-tagged SIRT2 (38 to 356 residues) expressed in Escherichia coli BL21 using H3K9AcWW as substrate preincubated for 15 mins followed by substrate addition measured after 1 hr by HPLC analysis
T4 sequence (Q8IXJ6 whole entry): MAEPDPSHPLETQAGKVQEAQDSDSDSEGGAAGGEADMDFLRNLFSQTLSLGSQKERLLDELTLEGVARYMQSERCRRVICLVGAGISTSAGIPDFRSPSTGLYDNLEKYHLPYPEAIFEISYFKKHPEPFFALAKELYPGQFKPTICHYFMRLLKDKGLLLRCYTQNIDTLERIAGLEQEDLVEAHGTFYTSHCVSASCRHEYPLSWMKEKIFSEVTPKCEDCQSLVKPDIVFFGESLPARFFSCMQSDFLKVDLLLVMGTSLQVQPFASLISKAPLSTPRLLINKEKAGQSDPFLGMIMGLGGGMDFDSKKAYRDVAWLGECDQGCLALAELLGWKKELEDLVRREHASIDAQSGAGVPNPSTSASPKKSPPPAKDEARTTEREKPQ

[5] = target: T3, NAD-dependent protein deacylase sirtuin-6; assay: Inhibition of human SIRT6 (1 to 294 residues) expressed in Escherichia coli Rosetta (DE3) at 250 uM using H3K9AcWW as substrate preincubated for 15 mins followed by substrate addition measured after 1 hr by HPLC analysis relative to control
[6] = target: T5, NAD-dependent protein deacetylase sirtuin-1 (Homo sapiens) (UniProt Q96EB6); assay: Inhibition of human SIRT1 expressed in Escherichia coli BL21 at 250 uM using H3K9AcWW as substrate preincubated for 15 mins followed by substrate addition measured after 1 hr by HPLC analysis relative to control
T5 sequence (whole entry): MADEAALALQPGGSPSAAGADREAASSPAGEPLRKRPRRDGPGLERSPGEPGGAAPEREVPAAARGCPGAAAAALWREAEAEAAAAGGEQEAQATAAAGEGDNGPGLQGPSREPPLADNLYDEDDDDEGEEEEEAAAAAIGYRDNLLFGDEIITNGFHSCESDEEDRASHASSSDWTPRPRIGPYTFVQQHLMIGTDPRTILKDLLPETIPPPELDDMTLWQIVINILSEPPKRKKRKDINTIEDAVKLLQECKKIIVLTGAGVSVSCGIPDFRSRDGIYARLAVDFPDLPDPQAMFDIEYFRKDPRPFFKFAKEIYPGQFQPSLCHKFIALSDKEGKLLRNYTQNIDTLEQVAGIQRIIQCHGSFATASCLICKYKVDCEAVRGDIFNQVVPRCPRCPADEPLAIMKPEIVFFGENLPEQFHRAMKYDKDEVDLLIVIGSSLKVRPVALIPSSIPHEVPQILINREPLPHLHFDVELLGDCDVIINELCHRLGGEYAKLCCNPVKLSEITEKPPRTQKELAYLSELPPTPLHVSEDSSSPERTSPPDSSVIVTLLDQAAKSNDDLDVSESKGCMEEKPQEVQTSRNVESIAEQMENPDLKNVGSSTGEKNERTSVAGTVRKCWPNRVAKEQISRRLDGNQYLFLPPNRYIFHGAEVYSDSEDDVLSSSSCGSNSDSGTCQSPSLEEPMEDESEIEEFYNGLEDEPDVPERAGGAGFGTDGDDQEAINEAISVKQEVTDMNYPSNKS

[7] = organism: Homo sapiens; assay: Selectivity ratio of IC50 for human SIRT3 expressed in Escherichia coli BL21 to IC50 for human N-terminal His6-SUMO-tagged SIRT2 (38 to 356 residues) expressed in Escherichia coli BL21
[8] = organism: Homo sapiens; assay: Selectivity ratio of IC50 for human SIRT1 expressed in Escherichia coli BL21 to IC50 for human N-terminal His6-SUMO-tagged SIRT2 (38 to 356 residues) expressed in Escherichia coli BL21
[9] = target: T6, NAD-dependent protein deacetylase sirtuin-1 (Homo sapiens, UniProt Q96EB6); assay: Inhibition of human SIRT1 expressed in Escherichia coli BL21 using H3K9AcWW as substrate preincubated for 15 mins followed by substrate addition measured after 1 hr by HPLC analysis
T6 sequence (Q96EB6 whole entry): T5 sequence (whole entry)

[10] = target: T1, NAD-dependent protein deacylase sirtuin-5, mitochondrial; assay: Inhibition of human SIRT5 expressed in Escherichia coli BL21 at 250 uM using H3K9AcWW as substrate preincubated for 15 mins followed by substrate addition measured after 1 hr by HPLC analysis relative to control
Target sequence in this assay (Q9NXA8 37-310 limits assumed): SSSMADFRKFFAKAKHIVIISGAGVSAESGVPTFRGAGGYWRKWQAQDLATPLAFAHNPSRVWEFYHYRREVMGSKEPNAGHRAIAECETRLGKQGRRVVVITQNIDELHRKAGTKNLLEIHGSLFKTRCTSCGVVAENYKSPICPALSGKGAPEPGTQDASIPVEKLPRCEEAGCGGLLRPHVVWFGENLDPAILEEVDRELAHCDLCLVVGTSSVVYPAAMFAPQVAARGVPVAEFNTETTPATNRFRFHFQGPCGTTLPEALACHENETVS

[11] = organism: Homo sapiens; assay: Selectivity ratio of IC50 for human SIRT5 expressed in Escherichia coli BL21 to IC50 for human N-terminal His6-SUMO-tagged SIRT2 (38 to 356 residues) expressed in Escherichia coli BL21
[12] = target: T7, NAD-dependent protein deacetylase sirtuin-2 (Homo sapiens) (UniProt Q8IXJ6); assay: Inhibition of human N-terminal His6-SUMO-tagged SIRT2 (38 to 356 residues) expressed in Escherichia coli BL21 at 250 uM using H3K9AcWW as substrate preincubated for 15 mins followed by substrate addition measured after 1 hr by HPLC analysis relative to control
T7 sequence (whole entry): T4 sequence (Q8IXJ6 whole entry)

[13] = target: T7, NAD-dependent protein deacetylase sirtuin-2 (Homo sapiens); assay: Competitive inhibition of human N-terminal His6-SUMO-tagged SIRT2 (38 to 356 residues) expressed in Escherichia coli BL21 at 5 to 10 uM using H3K9AcWW as substrate assessed as increase in substrate Km preincubated for 15 mins followed by substrate addition measured after 1 hr by double-reciprocal plot analysis
[14] = organism: Homo sapiens; assay: Selectivity ratio of IC50 for human SIRT6 (1 to 294 residues) expressed in Escherichia coli Rosetta (DE3) to human N-terminal His6-SUMO-tagged SIRT2 (38 to 356 residues) expressed in Escherichia coli BL21
[15] = target: T7, NAD-dependent protein deacetylase sirtuin-2 (Homo sapiens); assay: Inhibition of human N-terminal His6-SUMO-tagged SIRT2 (38 to 356 residues) expressed in Escherichia coli BL21 at 333 uM using H3K9AcWW as substrate preincubated for 15 mins followed by substrate addition measured after 1 hr by HPLC analysis relative to control
[16] = target: T3, NAD-dependent protein deacylase sirtuin-6; assay: Inhibition of human SIRT6 (1 to 294 residues) expressed in Escherichia coli Rosetta (DE3) at 333 uM using H3K9AcWW as substrate preincubated for 15 mins followed by substrate addition measured after 1 hr by HPLC analysis relative to control
[17] = target: T8, NAD-dependent protein deacetylase sirtuin-3, mitochondrial (Homo sapiens) (UniProt Q9NTG7); assay: Inhibition of human SIRT3 expressed in Escherichia coli BL21 at 333 uM using H3K9AcWW as substrate preincubated for 15 mins followed by substrate addition measured after 1 hr by HPLC analysis relative to control
T8 sequence (whole entry): T2 sequence (Q9NTG7 whole entry)

[18] = target: T5, NAD-dependent protein deacetylase sirtuin-1 (Homo sapiens); assay: Inhibition of human SIRT1 expressed in Escherichia coli BL21 at 333 uM using H3K9AcWW as substrate preincubated for 15 mins followed by substrate addition measured after 1 hr by HPLC analysis relative to control
[19] = target: T1, NAD-dependent protein deacylase sirtuin-5, mitochondrial; assay: Inhibition of human SIRT5 expressed in Escherichia coli BL21 at 333 uM using H3K9AcWW as substrate preincubated for 15 mins followed by substrate addition measured after 1 hr by HPLC analysis relative to control
Target sequence in this assay (Q9NXA8 37-310 limits assumed): as above

| IC50 [1] | IC50 [2] | IC50 [3] | inhibition [15] | inhibition [16] | inhibition [17] | inhibition [18] | inhibition [19] | SMILES | other results |
| --- | --- | --- | --- | --- | --- | --- | --- | --- | --- |
| > 200 µM | > 200 µM | > 200 µM |  |  |  |  |  | CCCCCCCCCCCCCC(=S)NCCCC[C@H](NC(=O)OCc1ccccc1)C(=O)Nc1ccccc1 |  |
| > 500 µM | > 500 µM | > 250 µM |  |  |  |  |  | CCCCCCCCCCNC(=O)CCCSC[C@H](NC(=O)[C@H](CCCNC(=N)N)NC(=O)[C@H](C)NC(=O)[C@@H](NC(=O)[C@H](CCC(N)=O)NC(=O)[C@@H](N)CCCCN)[C@@H](C)O)C(=O)N[C@@H](CO)C(=O)N[C@H](C(=O)NCC(=O)NCC(=O)N[C@@H](CCCCN)C(=O)O)[C@@H](C)O (H-KQTARC(X1)STGGK-OH) | IC50 [4]: 20 µM; inhibition [5]: 41%; inhibition [6]: 60%; Ratio IC50 [7]: > 10; Ratio IC50 [8]: > 10; IC50 [9]: > 200 µM; inhibition [10]: inactive; Ratio IC50 [11]: > 10; inhibition [12]: 95%; inhibition [13]: Active; Ratio IC50 [14]: > 10 |
|  |  |  | inactive | 11% | inactive | inactive | inactive | NC(=O)CCCSC[C@H](NC(=O)OCc1ccccc1)C(=O)Nc1ccccc1 |  |
| > 500 µM | > 500 µM | > 500 µM |  |  |  |  |  | CCCCCCCCNC(=O)CCCSC[C@H](NC(=O)[C@H](CCCNC(=N)N)NC(=O)[C@H](C)NC(=O)[C@@H](NC(=O)[C@H](CCC(N)=O)NC(=O)[C@@H](N)CCCCN)[C@@H](C)O)C(=O)N[C@@H](CO)C(=O)N[C@H](C(=O)NCC(=O)NCC(=O)N[C@@H](CCCCN)C(=O)O)[C@@H](C)O (H-KQTARC(X3)STGGK-OH) | IC50 [4]: 237 µM; inhibition [5]: inactive; inhibition [6]: 23%; IC50 [9]: > 300 µM; inhibition [10]: inactive; inhibition [12]: 66% |
|  |  |  | inactive | 53% | inactive | 26% | inactive | O=C(O)CNC(=O)CCCSC[C@H](NC(=O)OCc1ccccc1)C(=O)Nc1ccccc1 |  |
|  |  |  | 60% | inactive | inactive | inactive | 14% | CCCCCCCCNC(=O)CCCSC[C@H](NC(=O)OCc1ccccc1)C(=O)Nc1ccccc1 |  |
|  |  |  | 20% | 31% | inactive | inactive | inactive | CCCCCCCCCCCCCNC(=O)CCCSC[C@H](NC(=O)OCc1ccccc1)C(=O)Nc1ccccc1 |  |
|  |  | 20.9 µM |  |  |  |  |  | NC(=O)CCCCC[C@H](N)C(=O)O |  |
|  |  |  | 25% | 26% | inactive | inactive | inactive | CCCCNC(=O)CCCSC[C@H](NC(=O)OCc1ccccc1)C(=O)Nc1ccccc1 |  |
| > 50 µM | > 50 µM | > 20 µM |  |  |  |  |  | CCCCCCCCCCCCCNC(=O)CCCSC[C@H](NC(=O)[C@H](CCCNC(=N)N)NC(=O)[C@H](C)NC(=O)[C@@H](NC(=O)[C@H](CCC(N)=O)NC(=O)[C@@H](N)CCCCN)[C@@H](C)O)C(=O)N[C@@H](CO)C(=O)N[C@H](C(=O)NCC(=O)NCC(=O)N[C@@H](CCCCN)C(=O)O)[C@@H](C)O (H-KQTARC(X2)STGGK-OH) | IC50 [4]: 35 µM; inhibition [5]: 54%; inhibition [6]: 67%; Ratio IC50 [7]: 10; Ratio IC50 [8]: 10; IC50 [9]: > 200 µM; inhibition [10]: inactive; Ratio IC50 [11]: 10; inhibition [12]: 87%; Ratio IC50 [14]: 10 |
|  |  |  | 47% | 30% | 11% | inactive | 34% | O=C(CCCSC[C@H](NC(=O)OCc1ccccc1)C(=O)Nc1ccccc1)NCc1ccccc1 |  |
|  |  |  | 25% | inactive | inactive | inactive | inactive | CCCCCCNC(=O)CCCSC[C@H](NC(=O)OCc1ccccc1)C(=O)Nc1ccccc1 |  |
